Earlier results in patent US12060328B2, “Co-crystals or salts of psilocybin and methods of treatment therewith” (RESET PHARMACEUTICALS, INC., priority 2022, dated 2024).

Settings: cited from earlier work; for pKa (acidic) / pKa (basic): co-former property, Table 1

## CN(C)CCc1c[nH]c2cccc(OP(=O)(O)O)c12 [psilocybin, [3-(2-dimethylaminoethyl)-1H-indol-4-yl]dihydrogen phosphate]
Reported value, estimated
  pKa3 (tertiary amine) (estimated): 10.4
Reported value
  pKa1 (1st phosphate oxygen): 1.3
  pKa2 (2nd phosphate oxygen): 6.5

## O=C1CC[C@@H](C(=O)O)N1 [L-pyroglutamic acid]
  pKa (acidic): 3.48

## CCCOC(=O)c1cc(O)c(O)c(O)c1 [propyl 3,4,5-trihydroxybenzoate]
  pKa (acidic): 7.94

## NC(N)=O [urea]
  pKa (basic): 0.10

## NC(CO)(CO)CO [tromethamine]
  pKa (basic): 8.95

## OC[C@@H](O)[C@@H](O)[C@H](O)[C@H](O)CO [D-mannitol]
  pKa (acidic): 13.50

## Cn1c(=O)c2[nH]cnc2n(C)c1=O [theophylline]
  pKa (acidic): 8.81

## NC(CS)C(=O)O (racemic) [DL-cysteine]
  pKa (acidic): 1.71
  pKa (basic): 8.33

## NC(=O)c1ccncc1 [isonicotinamide]
  pKa (basic): 3.61

## OC[C@@H](O)[C@@H](O)CO [meso-erythritol]
  pKa (acidic): 13.90

## O=C(O)[C@H](O)[C@@H](O)[C@H](O)[C@H](O)CO [gluconic acid]
  pKa (acidic): 3.6
